Our source for the Ki values is patent publication US9226916B2, “Pyrrolidine derivatives” (HOFFMANN-LA ROCHE INC., priority 2009, dated 2016).

Where two headings read alike, the source gives them in different places.

The assay concerns the target T1, recombinant human NK3 receptor (Homo sapiens, UniProt P29371).
T1 construct: expressed in transfected cells; host or cells: HEK293 cells, transient expression; membranes
T1 sequence (P29371 1-465): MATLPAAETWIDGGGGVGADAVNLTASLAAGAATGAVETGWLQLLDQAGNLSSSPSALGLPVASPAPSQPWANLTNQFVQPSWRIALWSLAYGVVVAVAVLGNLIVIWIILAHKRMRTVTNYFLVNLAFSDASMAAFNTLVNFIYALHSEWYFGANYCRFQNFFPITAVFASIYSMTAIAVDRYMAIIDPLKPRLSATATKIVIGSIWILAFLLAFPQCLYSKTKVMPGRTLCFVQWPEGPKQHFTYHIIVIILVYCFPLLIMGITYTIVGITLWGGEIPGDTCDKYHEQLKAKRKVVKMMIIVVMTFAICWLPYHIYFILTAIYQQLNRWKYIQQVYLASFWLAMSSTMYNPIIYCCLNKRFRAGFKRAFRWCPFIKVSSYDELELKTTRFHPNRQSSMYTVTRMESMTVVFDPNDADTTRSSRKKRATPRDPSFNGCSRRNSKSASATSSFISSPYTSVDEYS
In words: [3H]SR142801 competition binding assay.

For the molecule `CN(C(=O)Oc1ccc(F)cc1)[C@H]1CN(C(=O)C2CCN(C3CCOCC3)CC2)C[C@@H]1c1ccc(Cl)c(Cl)c1` (racemic) [Example 77, rac-{(3R,4S)-4-(3,4-Dichloro-phenyl)-1-[1-(tetrahydro-pyran-4-yl)-piperidine-4-carbonyl]-pyrrolidin-3-yl}-methyl-carbamic acid 4-fluoro-phenyl ester], the Ki amounted to 1.5 nM.

For the molecule `CN(C(=O)Oc1ccc(F)cc1)[C@H]1CN(C(=O)C2CCN(c3nncs3)CC2)C[C@@H]1c1ccc(Cl)c(Cl)c1` (racemic) [Example 78, rac-[(3R,4S)-4-(3,4-Dichloro-phenyl)-1-(1-[1,3,4]thiadiazol-2-yl-piperidine-4-carbonyl)-pyrrolidin-3-yl]-methyl-carbamic acid 4-fluoro-phenyl ester], the Ki was 1.5 nM.

On to `CN(C(=O)Oc1ccc(F)cc1)[C@H]1CN(C(=O)C2CCN(c3ccc(Cl)nn3)CC2)C[C@@H]1c1ccc(Cl)c(Cl)c1` (racemic) [Example 79, rac-[(3R,4S)-1-[1-(6-Chloro-pyridazin-3-yl)-piperidine-4-carbonyl]-4-(3,4-dichloro-phenyl)-pyrrolidin-3-yl]-methyl-carbamic acid 4-fluoro-phenyl ester], for which the Ki was found to be 0.4 nM.

For `CN(C(=O)Oc1ccc(F)cc1)[C@H]1CN(C(=O)C2CCN(c3ccc(C#N)cn3)CC2)C[C@@H]1c1ccc(Cl)c(Cl)c1` (racemic) [Example 80, rac-[(3R,4S)-1-(5′-Cyano-3,4,5,6-tetrahydro-2H-[1,2′]bipyridinyl-4-carbonyl)-4-(3,4-dichloro-phenyl)-pyrrolidin-3-yl]-methyl-carbamic acid 4-fluoro-phenyl ester], the Ki worked out at 0.3 nM.

Consider `CN(C(=O)OCCC(F)(F)C(F)(F)F)[C@H]1CN(C(=O)C2CCN(C(=O)C3(C)CC3)CC2)C[C@@H]1c1ccc(Cl)c(Cl)c1` (racemic) [Example 83, rac-{(3R,4S)-4-(3,4-Dichloro-phenyl)-1-[1-(1-methyl-cyclopropanecarbonyl)-piperidine-4-carbonyl]-pyrrolidin-3-yl}-methyl-carbamic acid 3,3,4,4,4-pentafluoro-butyl ester], for which the Ki is 4.2 nM.

In the case of `CN(C(=O)OCC1CCOC1)[C@H]1CN(C(=O)C2CCN(C(=O)C3(C)CC3)CC2)C[C@@H]1c1ccc(Cl)c(Cl)c1` (mixture of isomers) [Example 85, rac-{(3R,4S)-4-(3,4-Dichloro-phenyl)-1-[1-(1-methyl-cyclopropanecarbonyl)-piperidine-4-carbonyl]-pyrrolidin-3-yl}-methyl-carbamic acid (S)-1-(tetrahydro-furan-3-yl)methyl ester and rac-{(3R,4S)-4-(3,4-Dichloro-phenyl)-1-[1-(1-methyl-cyclopropanecarbonyl)-piperidine-4-carbonyl]-pyrrolidin-3-yl}-methyl-carbamic acid (R)-1-(tetrahydro-furan-3-yl)methyl ester], the Ki was 9.2 nM.

With `CN(C(=O)OCCCC(F)(F)C(F)(F)F)[C@H]1CN(C(=O)C2CCN(C(=O)C3(C)CC3)CC2)C[C@@H]1c1ccc(Cl)c(Cl)c1` (racemic) [Example 88, rac-{(3R,4S)-4-(3,4-Dichloro-phenyl)-1-[1-(1-methyl-cyclopropanecarbonyl)-piperidine-4-carbonyl]-pyrrolidin-3-yl}-methyl-carbamic acid 4,4,5,5,5-pentafluoro-pentyl ester], the Ki worked out at 8.3 nM.

For `CN(C(=O)OCC1(C)CC1)[C@H]1CN(C(=O)C2CCN(C(=O)C3(C)CC3)CC2)C[C@@H]1c1ccc(Cl)c(Cl)c1` (racemic) [Example 91, rac-{(3R,4S)-4-(3,4-Dichloro-phenyl)-1-[1-(1-methyl-cyclopropanecarbonyl)-piperidine-4-carbonyl]-pyrrolidin-3-yl}-methyl-carbamic acid 1-methyl-cyclopropylmethyl ester], where the note is “hNK-3 receptor affinity, membranes from HEK293 cells transiently expressing recombinant human NK3 receptor, [3H]SR142801, Cheng-Prussoff, read-out: Data Ki”, the inhibition constant Ki is 4.4 nM.
